Data set [1] has as its system Mycoplasma iowae. As to the kind of experiment: Effect of citral on growth of Mycoplasma iowae (color changing units). It counts as cell-based. How it is done:
M. iowae is a known avian respiratory disease agent. […] Mycoplasma iowae were incubated at 37° C. in R2 (Chen, T. A., J. M. Wells, and C. H. Liao. 1982. Cultivation in vitro: spiroplasmas, plant mycoplasmas, and other fastidious, walled prokaryotes. pp. 417-446. in Phytopathogenic prokaryotes, V. 2, M. S. Mount and G. H. Lacy (ed.), Academic Press, New York) broth. One to 2-day old cultures were observed under a dark-field microscope to ensure cells were in filamentous form before treatment. Cell suspensions were vortexed to ensure they were evenly mixed before and an aliquot of 0.5 mL was dispensed into a sterile tube. […] The treated cell suspension was incubated for 24 hrs before the color changing units (CCUs) were determined by a 10-fold serial dilution in fresh R2. All treatments were duplicated. […] All culture tubes were incubated for 15 days before final readings were taken. A comparison was made of the effect of 24-hr and 48-hr treatment times. The CCUs were determined by taking treated cell suspension from the same treated tube 24 hrs or 48 hrs after treatment.

Data set [2] is described as follows: Break down / loss of potency of terpenes in the presence of oxygen. Format: physicochemical. The note with it: 500 ppm solution. From the text:
Terpenes will break down in the presence of oxygen. Citral, for example, is an aldehyde and will decay (oxygenate) over a period of days.

The test system of data set [3] is erythrocytes. It counts as cell-based, Human. As to the method: These mixtures were incubated for 20 minutes.
For data set [4], the system named is E. coli. The note with it: cited from earlier work.
A short description of data set [5]: Solution levels of terpenes in water (no surfactant, high-shear blending). Particulars: for Solution levels for various terpenes: Level: maximum level solubilized in water without surfactant. Format: physicochemical.
Data set [6] has as its system Mycoplasma pneumoniae. Briefly: In vitro effectiveness against Mycoplasma pneumoniae (color change). Format: cell-based. The note with it: 40 hours treatment. How it is done: Terpene beta-ionone or L-carvone was first mixed well with Tween® 80 to have a final Tween® 80 concentration of 5%. This mixture was then used to make concentrations of 2500 ppm in sterile phosphate buffer saline (PBS) by blending the mixture in PBS for 40 seconds. This 2500 ppm solution was then diluted to 500 ppm, 250 ppm, and 125 ppm with PBS.
PBS containing 25 ppm Tween® 80 or PBS alone was used to treat cells suspension as controls.
A log phase (2-3-day old) culture of Mycoplasma pneumoniae was mixed with each of the above three concentrations of terpene at 1:1 (volume) ratio (in this case, 1 mL of cell suspension was added to 1 mL of terpene).
The culture and terpene mixture was then incubated at 37° C. for 40 hours. After 40 hours of treatment, 10-fold serial dilution was performed to 10 (−10) by first taking 0.1 mL of the treated culture suspension was added into 0.9 mL of fresh SP4 (Whitcomb (1983); SP4 media is commercially available (Remel, Lenexa, Kans., USA)). All the tubes were then incubated at 37° C., and a color change of the medium was used for the indication of the cells that either were killed or survived from the treatment. Color change was from red to yellow because Mycoplasma pneumoniae produces acid during its growth.

In data set [7] the test system is H. pylori. Particulars: cited from earlier work.
Setting [8] is: 62.5 ppm (5% Tween 80, PBS), three days after 10-fold dilution.
Where [9] appears, read: 62.5 ppm, 6 days after 10-fold dilution.
[10] abbreviates: 125 ppm (5% Tween 80, PBS), three days after 10-fold dilution.
[11] abbreviates: 125 ppm, 6 days after 10-fold dilution.
[12] abbreviates: 250 ppm (5% Tween 80, PBS), three days after 10-fold dilution.
Where [13] appears, read: 250 ppm, 6 days after 10-fold dilution.

For the compound `CC(C)=CCCC(C)=CC=O` [Citral, 3,7-dimethyl-2,6-octadien-1-al], the “color changing units after treatment” value is listed as 10^6 CCUs in data set [1] (62.5 ppm, 24 hr (Table 4)); 10^8 CCUs in data set [1] (62.5 ppm, 24 hrs (Table 3)); 10^6 CCUs in data set [1] (62.5 ppm, 48 hr (Table 4)); 10^7 CCUs in data set [1] (125 ppm, 24 hr (Table 4)); 10^8 CCUs in data set [1] (125 ppm, 24 hrs (Table 3)); 10^6 CCUs in data set [1] (125 ppm, 48 hr (Table 4)). In addition, the “color changing units after treatment” value is recorded as 10^5 CCUs in data set [1] (250 ppm, 24 hr (Table 4)); 10^7 CCUs in data set [1] (250 ppm, 24 hrs (Table 3)); 10^4 CCUs in data set [1] (250 ppm, 48 hr (Table 4)). The “time in which solution loses half its potency” value in data set [2] was 2-3 weeks. In addition, the “concentration that will lyse human erythrocytes” value in data set [3] (human, 20 min) is reported as “about 1000 ppm”. For the same compound, the “citral concentration with bactericidal effect” value in data set [4] is recorded as 0.08%. For the same compound, the “citral in growth media that reduced the concentration of E. coli” value in data set [4] is “more than 0.01%”. In data set [5] (suspension), the “stable suspension can be formed up to” value is recorded as “about 2500 ppm”.
For Terpeniol, the “Solution levels for various terpenes: Level” value (“Solution levels” below) in data set [5] was found to be 500 ppm.
In the case of L-carvone, in data set [3], the “Concentration at which erythrocytes lyse” value is 250 ppm. Further, the “color change of medium / killing effect” value is “no killing effects” in data set [6] (setting [8]); “second and third tube” in data set [6] (setting [9]); “no killing effects” in data set [6] (setting [10]); “second and third tube” in data set [6] (setting [11]); “no killing effects” in data set [6] (setting [12]); “second and third tube” in data set [6] (setting [13]).
Turning to `CC(=O)/C=C/C1=C(C)CCCC1(C)C` [b-ionone], the “Concentration at which erythrocytes lyse” value in data set [3] is 2000 ppm. Moreover, the “color change of medium / killing effect” value was “did not change color at all” in data set [6] (setting [8]); “only the first tube” in data set [6] (setting [9]); “did not change color at all” in data set [6] (setting [10]); “may have completely killed all cells” in data set [6] (setting [11]); “did not change color at all” in data set [6] (setting [12]); “may have completely killed all cells” in data set [6] (setting [13]). Further, the “Solution levels” value in data set [5] was 500 ppm.
As for `CC(C)=CCC/C(C)=C/CO` [Geraniol], in data set [5], the “Solution levels” value is on record as 500 ppm. The “concentration that inhibited the growth of H. pylori in vitro” value in data set [7] was 2 mg/L.
Regarding `C=C(C)C1CC=C(C)C(=O)C1` (stereo not drawn) [Carvone], the “Solution levels” value in data set [5] is listed as 500 ppm.
